Measurements: US20140037625A1, “BIOMARKERS AND METHODS OF TREATMENT” (GENENTECH, INC., priority 2010, published 2014)
Read-outs that look alike come from different tables or passages of the source.

Key:
[1] = test system: NSCLC patients; conditions: cited from earlier work
[2] = test system: patients with second and third-line NSCLC; conditions: for Difference in ORR, % (95% CI): Erlotinib + MetMAb vs Erlotinib + Placebo
From the text: The original protocol for this study was described, e.g., in WO2010/045345; however, the study was later modified to add enrollment of 50 patients with squamous cell histology as follows. […] During this study, patients and treating individuals, including the investigators, were blinded to the treatment assignment of study drug (MetMAb or placebo).
During the study, data on tumor measurement and survival status were collected for evaluation of PFS, overall survival (OS) and overall response rate (ORR). CT scans were obtained at baseline and for the first four cycles at an approximately every 6 week intervals (i.e., every two three-week cycles of MetMAb/placebo). After four cycles, routine CT scans were performed approximately every 9 weeks (every 3 cycles of MetMAb/placebo). FDG-PET imaging is obtained at baseline and at Day 10-14 of Cycle 1. During the course of this study, an Image Reading facility (IRF) evaluated FDG-PET results and determined whether FDG-PET imaging should continue in all participating sites or whether FDG-PET imaging should be confined to a few sites based on data received.
The primary outcome measure of this study was progression free survival (PFS) defined by the Response Evaluation Criteria In Solid Tumors (RECIST)) 1.0 or death from any cause within thirty days of the last treatment.
(a) overall response (OR) (partial response plus complete response) as determined using RECIST 1.0 in Met positive tumors and overall; and
(c) Overall survival (time from randomization until death from any cause within 30 days of the last study treatment).
Kaplan-Meier methodology was used to estimate the median PFS for each treatment arm. The stratification factors were determined by the […] (CRF) data, not by data collected by the interactive voice […] system at the time of randomization unless the CRF data was missing. Estimation of the hazard ration (i.e., the magnitude of the treatment effect and the 95% confidence interval) was determined using a stratified Cox regression model with an indicator variable for MetMAb treatment. The same analysis methods as those described for PFS in “overall” population patients were applied to patients with met positive tumors and to patients with SCC histology. All deaths from any cause within 30 days of the last treatment were included as PFS events. Objective response was defined as a complete or partial response determined on two consecutive occasions greater than or equal to four weeks apart. Patients without a post-baseline tumor assessment were considered non-responders. An estimate of the objective response rate and 95% confidence interval (Blyth-Still-Casella) was calculated for each treatment arm. Confidence intervals for the difference in tumor response rate (Satnes and Snell 1980; Berger and Boos 1994) were calculated. For patients with an objective response, duration of objective response was defined as the time from the initial response to disease progression or death from any cause within 30 days of the last treatment. Methods for handling censoring and for analysis were the same as described for PFS. All secondary efficacy endpoints were assessed for patients with met positive tumors, patients with SCC histology and by “overall” patient population.

[3] = test system: patients with second and third-line NSCLC; test: Phase II trial of MetMAb plus erlotinib versus erlotinib plus placebo: safety, disposition and exposure
From the text: (§1) This study was a Phase II, double-blind, randomized, multicenter trial designed to evaluate the preliminary activity and safety of treatment with MetMAb plus Erlotinib versus Erlotinib plus placebo in second and third-line NSCLC. […] Once 120 patients, comprising the “overall” population were enrolled, eligibility was restricted to patients with squamous cell carcinoma (SCC) histology to ensure that a total of approximately 80 patients with SCC are enrolled in the study. Randomization for the first 120 patients comprising the “overall” population was stratified by smoking status (non-smokers and smokers who have quit more than 10 years ago versus current smokers and smokers who have quit less than 10 years ago), performance status and histology, and randomization for the next 50 SCC patients will be stratified by smoking status and performance status. Treatment in each arm was continued until progression of disease, unacceptable toxicity, or any other discontinuation criterion was met. Upon disease progression, patients randomized to the Erlotinib plus placebo arm were given the option to receive MetMAb (in addition to continuing Erlotinib), provided they continue to meet eligibility criteria. Safety data collected from this cross-over was summarized for hypothesis generating purposes.
(§2) Primary and secondary efficacy analyses included all randomized patients, with patients allocated to the treatment arm to which they were randomized. Safety analyses included all randomized patients who received at least one dose of study treatment, with patients allocated to the treatment arm associated with the regimen actually received. Demographic and baseline characteristics (e.g. age and sex) were summarized using means, standard deviations, medians, and ranges for continuous variables and proportions for categorical variables, as appropriate. Summaries were presented by overall patient population and by treatment arm. The baselines value of any variable were defined as the last available value prior to the first administration of study treatment.
(§3) The dose of MetMAb was 15 mg/kg intravenously on Day 1 of a 3-week cycle. The weight at screening was used to determine the actual dose of MetMAb. The dose of erlotinib was 150 mg by mouth each day of a 3-week cycle. Dosage level for erlotinib may have been reduced to 100 mg (first reduction) or 50 mg (second reduction) for toxicity likely attributable to erlotinib (e.g., rash, diarrhea).

[4] = test system: patients with second and third-line NSCLC; conditions: in vivo
From the text: as §1, §2, §3

[5] = test system: patients with advanced NSCLC; test: Exploratory biomarker analyses from OAM4558g (MET FISH, mRNA by qRT-PCR) with outcome; type: in vivo, human
Experimental: MET and EGFR gene copy numbers were evaluated by fluorescent in situ hybridization (FISH). […] True MET amplification was defined as tight gene cluster of greater than or equal to 15 copies of MET in greater than or equal to 10% of tumor cells or a MET/CEP7 ratio of greater than or equal to 2.
MET, HGF, EGFR, AREG, and EREG mRNA expression was evaluated on RNA extracted from macro-dissected tumor tissue slides using the Fluidigm platform. Transcript levels were normalized to the mean of two reference genes that are stably expressed in lung tissue and results are expressed as normalized expression values (2^−ΔCt).
Exploratory tumor biomarkers related to c-Met and/or EGFR signaling were measured by FISH, qRT-PCR or various mutation detection techniques from archival tumor tissue specimens. Plasma HGF levels were measured by ELISA. Analyses with outcome were carried out independent of Met clinical diagnostic status.

[6] = Met High, data cut-off Jun. 8, 2010
[7] = Met Low, data cut-off Jun. 8, 2010
[8] = Met diagnostic negative patients, MetMAb+erlotinib vs erlotinib and placebo, data cut-off Nov. 15, 2010
[9] = Met diagnostic positive patients, MetMAb plus erlotinib vs placebo+erlotinib, data cut-off Nov. 15, 2010
[10] = Met diagnostic positive patients, data cut-off Nov. 15, 2010
[11] = Met high patients, MetMAb plus erlotinib vs placebo plus erlotinib, data cut-off Jun. 8, 2010
[12] = Met high patients, data cut-off Jun. 8, 2010
[13] = Met low patients, ME vs erlotinib and placebo, data cut-off Jun. 8, 2010
[14] = Overall, data cut-off Jun. 8, 2010
[15] = overall (ITT) population, MetMAb plus erlotinib vs placebo plus erlotinib, data cut-off Jun. 8, 2010
[16] = overall (ITT) population, MetMAb plus erlotinib vs placebo plus erlotinib, data cut-off Nov. 15, 2010
[17] = Met Diagnostic-Negative, data cut-off Nov. 15, 2010
[18] = Met Diagnostic-Positive, data cut-off Nov. 15, 2010
[19] = all patients, data cut-off Jun. 8, 2010

## Nc1nc2[nH]cc(CCc3ccc(C(=O)N[C@@H](CCC(=O)O)C(=O)O)cc3)c2c(=O)[nH]1 [Pemtrexed]
[1]; NSCLC SCC, Scagliotti et al, 2008
  efficacy in SCC: relatively lower efficacy
[1]; NSCLC adenocarcinoma, Scagliotti et al, 2008
  activity in adenocarcinoma: active

## Erlotinib + MetMAb: MetMAb (15 mg/kg IV q3wks) plus erlotinib treatment, interchangeably termed ME
[2]; 10% Met diagnostic positive and not Met diagnostic positive using the 50% cutoff
  overall survival treatment effect HR (unstratified Cox model): 2.83
[2]; 10% Met diagnostic positive patients (>=10% tumor cells IHC 2+ or 3+)
  overall survival treatment effect HR (unstratified Cox model): 0.52
[2]; 90% Met diagnostic positive patients
  overall survival treatment effect HR (unstratified Cox model): 0.30
[2]; [6]
  Difference in ORR, % (95% CI): 5.2 (−6.0-16.5) %
  # pts PD by RECIST: n = 17
  No. of patients with OR (%): 3 (8.6) No. of patients (%)
  Pattern of progression: PD by new lesions: 9 (52.9)
  Pattern of progression: PD on target lesions: 11 (64.7)
[2]; Met IHC status 0 and 1 patients, data cut-off Jun. 8, 2010
  PFS benefit by subgroup: did not benefit
[2]; Met IHC status 3 and 2 patients, data cut-off Jun. 8, 2010
  PFS benefit by subgroup: showed benefit
[2]; [7]
  # pts PD by RECIST: n = 15
  Pattern of progression: PD by new lesions: 7 (46.7)
  Pattern of progression: PD on target lesions: 11 (73.3)
[2]; Met diagnostic negative IHC status 0 and 1 patients, data cut-off Nov. 15, 2010
  OS benefit by subgroup: did not benefit
[2]; [8]
  OS HR: 1.78
  PFS HR: 1.82
[2]; Met diagnostic positive IHC status 3 and 2 patients, data cut-off Nov. 15, 2010
  OS benefit by subgroup: showed benefit
[2]; [9]
  OS Hazard ratio (HR): 0.37
  PFS Hazard ratio (HR): 0.53
[2]; [10]
  median OS: 12.6 months
  median PFS: 2.9 months
[2]; Met diagnostic positive using 50% cutoff
  overall survival treatment effect HR (unstratified Cox model): 0.38
[2]; Met diagnostic positive using 50% cutoff and not 90% Met diagnostic positive
  overall survival treatment effect HR (unstratified Cox model): 0.75
[2]; Met high IHC status 3 and 2 patients, data cut-off Jun. 8, 2010
  OS benefit by subgroup: showed benefit
[2]; [11]
  OS Hazard ratio (HR): 0.55
  PFS Hazard ratio (HR): 0.56
[2]; [12]
  median OS: 7.7 weeks
  median PFS: 12.4 weeks
[2]; Met high population excluding patients with known EGFR mutations, relative to placebo+erlotinib, data cut-off Jun. 8, 2010
  OS HR: 0.55
[2]; Met low IHC status 0 and 1 patients, data cut-off Jun. 8, 2010
  OS benefit by subgroup: did not benefit
[2]; [13]
  OS HR: 3.26
  PFS HR: 2.01
[2]; Met low patients, data cut-off Jun. 8, 2010
  patients progressed by the first assessment (CAT scan at week 6): ~70%
[2]; Met low patients, data cut-off Nov. 15, 2010
  patients progressed by the first assessment (CAT scan at week 6): ~70%
[2]; [14]
  Difference in ORR, % (95% CI): 1.6 (−6.3-9.4) %
  No. of patients with OR (%): 4 (6.3) No. of patients (%)
[2]; [15]
  OS HR: 1.09
  PFS HR: 1.09
[2]; [16]
  OS Hazard ratio: 0.8
  PFS Hazard ratio: 1.09
[2]; overall population, data cut-off Jun. 8, 2010
  Objective response rate: 6.3%
[3]; Met Diagnostic Negative, data cut-off Nov. 15, 2010
  Summary of safety data: Adverse events leading to death: 3 (9.7) No. of patients (%)
[3]; Met Diagnostic Positive, data cut-off Nov. 15, 2010
  Summary of safety data: Adverse events leading to death: 1 (2.9) No. of patients (%)
[3]; [17]
  Patient disposition: Death: 2 (6.5) No. of patients (%)
  Patient disposition: Disease progression: 22 (71.0) No. of patients (%)
[3]; [18]
  Patient disposition: Death: 0 No. of patients (%)
  Patient disposition: Disease progression: 18 (51.4) No. of patients (%)
[3]; [6]
  Summary of safety: AEs leading to death: 1 (2.9) n (%)
[3]; [7]
  All adverse events: Dyspnea: 4 (14.8) n (%)
  Summary of safety: AEs leading to death: 4 (14.8) n (%)
[3]; Met low, data cut-off Jun. 8, 2010
  Grade 3-5 adverse events: Pneumonia: 4 (14.8) n (%)
[3]; [19]
  Patient disposition: Deaths: 2 (3.1) n (%)
  Patient disposition: Disease progression: 34 (53.1) n (%)
[4]
  All adverse events: Dyspnea: 7 (20.0) n (%)
  Grade 3-5 adverse events: Pneumonia: 1 (2.9) n (%)
  Patient disposition: Adverse events: 7 (10.9) n (%)
  Safety: tolerability: well-tolerated
[5]; AREG mRNA High, MetMAb + Erlotinib vs Placebo + Erlotinib
  outcome HR: 0.77
[5]; AREG mRNA Low (median 7.11)
  outcome Median (mo): 6.5 mo
[5]; AREG mRNA Low, MetMAb + Erlotinib vs Placebo + Erlotinib
  outcome HR: 1.31
[5]; EGFR mRNA High (median 7.75)
  outcome Median (mo): 7.1 mo
[5]; EGFR mRNA High, MetMAb + Erlotinib vs Placebo + Erlotinib
  outcome HR: 1.1
[5]; EGFR mRNA Low (median 7.75)
  outcome Median (mo): 11.7 mo
[5]; EGFR mRNA Low, MetMAb + Erlotinib vs Placebo + Erlotinib
  outcome HR: 0.88
[5]; EREG mRNA High (median 0.26)
  outcome Median (mo): 10.2 mo
[5]; EREG mRNA High, MetMAb + Erlotinib vs Placebo + Erlotinib
  outcome HR: 0.67
[5]; EREG mRNA Low (median 0.26)
  outcome Median (mo): 8.1 mo
[5]; EREG mRNA Low, MetMAb + Erlotinib vs Placebo + Erlotinib
  outcome HR: 1.34
[5]; MET mRNA High (median 3.16)
  outcome Median (mo): 8.7 mo
[5]; MET mRNA High, MetMAb + Erlotinib vs Placebo + Erlotinib
  outcome HR: 0.59
[5]; MET mRNA Low (median 3.16)
  outcome Median (mo): 11.7 mo
[5]; MET mRNA Low, MetMAb + Erlotinib vs Placebo + Erlotinib
  outcome HR: 1.48

## MetMAb: known recombinant, humanized, monovalent monoclonal antibody directed against c-met
[3]; both Met diagnostic positive and diagnostic negative populations, data cut-off Nov. 15, 2010
  frequency of peripheral edema in MetMAb treated arms: higher
[5]; EGFR-wildtype patients that were Met diagnostic positive and MET FISH negative
  OS HR: 0.45
[5]; EGFR-wildtype patients, MET FISH positive at lower threshold ≧4 copies
  outcome HR: 0.89

## bevacizumab: anti-VEGF antibody
[1]; in vivo
  bleeding risk: increased bleeding risk
